The source of these data is patent publication US9765092B2, “Tricyclic piperidine compounds” (ACTELION PHARMACEUTICALS LTD, priority 2013, dated 2017).

As usually defined, the IC50 is the concentration that inhibits the measured activity by half. Read a low IC50 as inhibition by little substance.

For this assay, the target named is human TPH1 (Homo sapiens (Human), UniProt P17752). Briefly: Biochemical in vitro assay using fluorescence readout (TPH1 inhibition).
The mark [1] stands for this setting: human TPH1, fluorescence readout.
Where [2] appears, read: full length human TPH1, 40 μM L-tryptophan, 15° C., 60 minutes, fluorescence at 540 nm, mean if determined several times.

Chain of human TPH1 (P17752 whole entry): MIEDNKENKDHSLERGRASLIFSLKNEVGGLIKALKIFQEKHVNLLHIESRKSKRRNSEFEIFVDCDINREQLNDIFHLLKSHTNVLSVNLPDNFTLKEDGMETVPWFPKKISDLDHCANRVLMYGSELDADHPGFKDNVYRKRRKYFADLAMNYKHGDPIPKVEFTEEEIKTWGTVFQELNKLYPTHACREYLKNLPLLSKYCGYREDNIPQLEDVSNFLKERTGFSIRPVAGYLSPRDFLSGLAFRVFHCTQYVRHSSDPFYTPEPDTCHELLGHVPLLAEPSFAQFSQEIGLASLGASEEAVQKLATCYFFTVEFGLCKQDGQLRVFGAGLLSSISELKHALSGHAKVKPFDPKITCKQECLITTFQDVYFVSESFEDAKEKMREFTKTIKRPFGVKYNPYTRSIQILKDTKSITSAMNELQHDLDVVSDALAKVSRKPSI

Molecule `Cc1ccc(C2c3c(nc4sccn34)CCN2C(=O)COc2cccnc2Cl)c(F)c1` (stereo not drawn) [Example 6.10.3, 2-((2-chloropyridin-3-yl)oxy)-1-(5-(2-fluoro-4-methyl-phenyl)-7,8-dihydrothiazolo[2′,3′:2,3]imidazo[4,5-c]-pyridin-6(5H)-yl)ethanone] showed an IC50 under setting [1] of 14 nM. For `Cc1nn2c3c(nc2s1)CCN(C(=O)COc1ccc(C(F)(F)F)cc1Cl)C3c1cnc(N(C)C)s1` (stereo not drawn) [Example 1.22.5, 2-(2-Chloro-4-(trifluoromethyl)phenoxy)-1-(5-(2-(dimethylamino)thiazol-5-yl)-2-methyl-7,8-dihydro-[1,3,4]thiadiazolo[2′,3′:2,3]imidazo[4,5-c]pyridin-6(5H)-yl)ethanone], half-maximal inhibition under setting [2] (IC50) required 130 nM. For `Cc1ncc(OCC(=O)N2CCc3nc4sc(C)nn4c3C2c2ccc(Cl)cc2F)c(C)n1` (stereo not drawn) [Example 1.4.45, 1-(5-(4-chloro-2-fluorophenyl)-2-methyl-7,8-dihydro-[1,3,4]thiadiazolo[2′,3′:2,3]imidazo[4,5-c]pyridin-6(5H)-yl)-2-((2,4-dimethylpyrimidin-5-yl)oxy)ethanone], 98 nM corresponded to half-maximal inhibition under setting [1] (IC50). Still for that read-out and setting: the result for `Cc1nn2c3c(nc2s1)CCN(C(=O)COc1ccc(N2CCOCC2)nc1Cl)C3c1ccc(C2CC2)cc1F` (stereo not drawn) [Example 1.6.17, 2-((2-chloro-6-morpholinopyridin-3-yl)oxy)-1-(5-(4-cyclopropyl-2-fluorophenyl)-2-methyl-7,8-dihydro-[1,3,4]thiadiazolo [2′,3′:2,3]imidazo[4,5-c]pyridin-6(5H)-yl)ethanone] reads 3 nM; that for `COC(=O)c1ccc(C2c3c(nc4sc(C)nn34)CCN2C(=O)COc2ccc(C(=O)NC3CC3)nc2Cl)c(F)c1` (stereo not drawn) [Example 1.79.2, methyl-4-(6-(2-((2-chloro-6-(cyclopropylcarbamoyl)pyridin-3-yl)oxy)acetyl)-2-methyl-5,6,7,8-tetrahydro-[1,3,4]thiadiazolo[2′,3′:2,3]imidazo[4,5-c]pyridin-5-yl)-3-fluorobenzoate], 21 nM; that for “2-(4-(aminomethyl)-2-chlorophenoxy)-1-(5-(3-fluorothiophen-2-yl)-2-methyl-7,8-dihydro-[1,3,4]thiadiazolo[2′,3′:2,3]imidazo[4,5-c]pyridin-6(5H)-yl)ethanone [Example 1.23.7]”, 38 nM.

On to `CCc1nc(NS(C)(=O)=O)ccc1OCC(=O)N1CCc2nc3sc(C)nn3c2C1c1sccc1F` (stereo not drawn) [Example 1.71.2, N-(6-ethyl-5-(2-(5-(3-fluorothiophen-2-yl)-2-methyl-7,8-dihydro-[1,3,4]thiadiazolo[2′,3′:2,3]imidazo[4,5-c]pyridin-6(5H)-yl)-2-oxoethoxy)pyridin-2-yl)methanesulfonamide], for which the midpoint of inhibition under setting [1], the IC50, lay at 7 nM. `Cc1cnc([C@H]2c3c(nc4sc(C)nn34)CCN2C(=O)COc2ccc(C3(N(C)C)CC3)nc2Cl)c(F)c1` [Example 1.31.12, (R)-2-((2-chloro-6-(1-(dimethylamino)cyclopropyl)pyridin-3-yl)oxy)-1-(5-(3-fluoro-5-methylpyridin-2-yl)-2-methyl-7,8-dihydro-[1,3,4]thiadiazolo[2′,3′:2,3]imidazo[4,5-c]pyridin-6(5H)-yl)ethanone] returned an IC50 under setting [1] of 217 nM. Turning to `COCCOc1ccc(C2c3c(nc4sc(C)nn34)CCN2C(=O)COc2ccc(NS(C)(=O)=O)nc2Cl)c(F)c1` (stereo not drawn) [Example 1.83.2, N-(6-chloro-5-(2-(5-(2-fluoro-4-(2-methoxyethoxy)phenyl)-2-methyl-7,8-dihydro-[1,3,4]thiadiazolo[2′,3′:2,3]imidazo[4,5-c]pyridin-6(5H)-yl)-2-oxoethoxy)pyridin-2-yl)methanesulfonamide], under setting [1], the IC50 worked out at 18 nM.

As for `CCc1nc(C)ccc1OCC(=O)N1CCc2nc3sccn3c2C1c1ccc(C(F)(F)F)cc1F` (stereo not drawn) [Example 6.11.1, 2-((2-ethyl-6-methylpyridin-3-yl)oxy)-1-(5-(2-fluoro-4-(trifluoromethyl)phenyl)-7,8-dihydrothiazolo-[2′,3′:2,3]imidazo[4,5-c]pyridin-6(5H)-yl)ethanone], the IC50 under setting [1] was found to be 10 nM. For the molecule `Cc1nn2c3c(nc2s1)CCN(C(=O)COc1ccc(N2CCOCC2)nc1Cl)C3c1cc(C(=O)N(C)C)cs1` (stereo not drawn) [Example 1.9.1, 5-(6-(2-((2-chloro-6-morpholinopyridin-3-yl)oxy)acetyl)-2-methyl-5,6,7,8-tetrahydro-[1,3,4]thiadiazolo[2′,3′:2,3]imidazo[4,5-c]pyridin-5-yl)-N,N-dimethyl-thiophene-3-carboxamide], it took 5 nM to reach half-maximal inhibition under setting [2] (IC50). Regarding `CCc1nc(C(=O)NC2CC2)ccc1OCC(=O)N1CCc2nc3sc(C(F)F)nn3c2C1c1sc(C)nc1C` (stereo not drawn) [Example 8.3.1, N-cyclopropyl-5-(2-(2-(difluoromethyl)-5-(2,4-dimethylthiazol-5-yl)-7,8-dihydro-[1,3,4]thiadiazolo[2′,3′:2,3]imidazo[4,5-c]pyridin-6(5H)-yl)-2-oxoethoxy)-6-ethylpicolinamide], under setting [1], the IC50 is 11 nM.

As to `Cc1nn2c3c(nc2s1)CCN(C(=O)COc1ccc(S(N)(=O)=O)cc1)C3c1ccc(C2CC2)cc1F` (stereo not drawn) [Example 1.6.12, 4-(2-(5-(4-cyclopropyl-2-fluorophenyl)-2-methyl-7,8-dihydro-[1,3,4]thiadiazolo[2′,3′:2,3]imidazo[4,5-c]pyridin-6(5H)-yl)-2-oxoethoxy)benzenesulfonamide], under setting [1], it took 390 nM to reach half-maximal inhibition (IC50). Molecule `CNS(=O)(=O)c1ccc(OCC(=O)N2CCc3nc4sc(C)nn4c3C2c2ccc(Cl)cc2F)c(Cl)n1` (stereo not drawn) [Example 1.4.60, 6-chloro-5-(2-(5-(4-chloro-2-fluorophenyl)-2-methyl-7,8-dihydro-[1,3,4]thiadiazolo[2′,3′:2,3]imidazo[4,5-c]pyridin-6(5H)-yl)-2-oxoethoxy)-N-methylpyridine-2-sulfonamide] showed an IC50 under setting [1] of 36 nM. For `CCc1nc(N2CCCS2(=O)=O)ccc1OCC(=O)N1CCc2nc3sc(C)nn3c2[C@@H]1c1sc(C)nc1C` [Example 1.68.8, (R)-1-(5-(2,4-dimethylthiazol-5-yl)-2-methyl-7,8-dihydro-[1,3,4]thiadiazolo[2′,3′:2,3]imidazo[4,5-c]pyridin-6(5H)-yl)-2-((6-(1,1-dioxidoisothiazolidin-2-yl)-2-ethylpyridin-3-yl)oxy)ethanone], the 50% inhibitory concentration (IC50) under setting [1] was 5 nM. Take `Cc1nn2c3c(nc2s1)CCN(C(=O)COc1cccc2c1ccn2C)C3c1ccc(Cl)cc1F` (stereo not drawn) [Example 1.4.62, 1-(5-(4-chloro-2-fluorophenyl)-2-methyl-7,8-dihydro-[1,3,4]thiadiazolo[2′,3′:2,3]imidazo[4,5-c]pyridin-6(5H)-yl)-2-((1-methyl-1H-indol-4-yl)oxy)ethan-1-one]: the IC50 under setting [1] is 15 nM.

Consider `CN(C)C(=O)c1ccc(OCC(=O)N2CCc3nc4sccn4c3C2c2sc(C(=O)N(C)C)cc2F)c(Cl)n1` (stereo not drawn) [Example 6.9.2, 6-chloro-5-(2-(5-(5-(dimethylcarbamoyl)-3-fluoro-thiophen-2-yl)-7,8-dihydrothiazolo[2′,3′:2,3]imidazo-[4,5-c]pyridin-6(5H)-yl)-2-oxoethoxy)-N,N-dimethylpicolinamide], for which it took 5 nM to reach half-maximal inhibition under setting [1] (IC50).

Consider `CCc1nc(C(=O)NC2CC2)ccc1OCC(=O)N1CCc2nc3sc(C)nn3c2C1c1sccc1F` (stereo not drawn) [Example 1.71.1, N-cyclopropyl-6-ethyl-5-(2-(5-(3-fluorothiophen-2-yl)-2-methyl-7,8-dihydro-[1,3,4]thiadiazolo[2′,3′:2,3]-imidazo[4,5-c]pyridin-6(5H)-yl)-2-oxoethoxy)picolinamide], for which the midpoint of inhibition under setting [1], the IC50, lay at 12 nM. As for `COCc1ccc(C2c3c(nc4sc(C)nn34)CCN2C(=O)COc2ccc(NS(C)(=O)=O)nc2Cl)c(F)c1` (stereo not drawn) [Example 1.82.1, N-(6-chloro-5-(2-(5-(2-fluoro-4-(methoxymethyl)phenyl)-2-methyl-7,8-dihydro-[1,3,4]thiadiazolo[2′,3′:2,3]imidazo[4,5-c]pyridin-6(5H)-yl)-2-oxoethoxy)pyridin-2-yl)methanesulfonamide], the IC50 under setting [1] came out at 17 nM. `Cc1nn2c3c(nc2s1)CCN(C(=O)COc1ccc(N(C)C)nc1Cl)C3c1cnc(OC(F)F)cc1C` (stereo not drawn) [Example 1.15.1, 2-((2-chloro-6-(dimethylamino)pyridin-3-yl)oxy)-1-(5-(6-(difluoromethoxy)-4-methylpyridin-3-yl)-2-methyl-7,8-dihydro-[1,3,4]thiadiazolo[2′,3′:2,3]imidazo[4,5-c]pyridin-6(5H)-yl)ethanone] registered an IC50 under setting [1] of 58 nM.

With `Cc1nn2c3c(nc2s1)CCN(C(=O)COc1cccnc1C(F)(F)F)C3c1ccc(C2CC2)cc1F` (stereo not drawn) [Example 1.6.13, 1-(5-(4-cyclopropyl-2-fluorophenyl)-2-methyl-7,8-dihydro-[1,3,4]thiadiazolo[2′,3′:2,3]imidazo[4,5-c]pyridin-6(5H)-yl)-2-((2-(trifluoromethyl)pyridin-3-yl)oxy)ethanone], the IC50 under setting [1] amounted to 4 nM.

As for `Cc1nn2c3c(nc2s1)CCN(C(=O)COc1ccc(N2CCOCC2)cc1Cl)C3c1ccc(Cl)cc1F` (stereo not drawn) [Example 1.4.3, 1-(5-(4-chloro-2-fluorophenyl)-2-methyl-7,8-dihydro-[1,3,4]thiadiazolo[2′,3′:2,3]imidazo[4,5-c]pyridin-6(5H)-yl)-2-(2-chloro-4-morpholinophenoxy)ethanone], under setting [1], the IC50 was found to be 4 nM. The molecule `Cc1nn2c3c(nc2s1)CCN(C(=O)COc1ccc(C(F)(F)F)cc1Cl)C3c1scnc1C` (stereo not drawn) [Example 1.32.3, 2-(2-chloro-4-(trifluoromethyl)phenoxy)-1-(2-methyl-5-(4-methylthiazol-5-yl)-7,8-dihydro-[1,3,4]thiadiazolo [2′,3′:2,3]imidazo[4,5-c]pyridin-6(5H)-yl)ethanone] had an IC50 under setting [1] of 10 nM. On to `Cc1nn2c3c(nc2s1)CCN(C(=O)COc1ccc(C(F)(F)F)nc1Cl)C3c1sc(C(=O)N(C)C)cc1F` (stereo not drawn) [Example 1.24.2, 5-(6-(2-((2-chloro-6-(trifluoromethyl)pyridin-3-yl)oxy)acetyl)-2-methyl-5,6,7,8-tetrahydro-[1,3,4]thiadiazolo [2′,3′:2,3]imidazo[4,5-c]pyridin-5-yl)-4-fluoro-N,N-dimethylthiophene-2-carboxamide], for which the midpoint of inhibition under setting [1], the IC50, lay at 22 nM.
